From patent publication US10300000B2, “Inhibition of melanogenesis by chemically modified curcumins” (The Research Foundation for The State University of New York, priority 2016, dated 2019)

Key:
mushroom tyrosinase = test: Mushroom tyrosinase activity, cell-free, L-DOPA substrate; type: biochemical; conditions: all concentrations tested
Procedure: The direct effects of the compounds on tyrosinase enzyme activity were tested using mushroom tyrosinase enzyme with L-DOPA substrate. Briefly, 80 μl of all the 6 test compounds prepared at different concentrations in 50 mM sodium phosphate (pH 6.5) buffer was added to 96 wells followed by 100 μl of freshly prepared substrate solution (3 mM L-DOPA in buffer). The reaction was initiated by adding 20 μl of mushroom tyrosinase enzyme (final concentration of enzyme in wells was 3.5 μg/ml). The production of DOPAchrome was monitored by measuring the kinetics of absorbance increase at 475 nm (for 30 min every 30 seconds) at 30° C. using microplate reader (Versamax®). The slopes of the kinetic readings were calculated to determine and compare tyrosinase activity from control.

[1] = target: T1, cellular tyrosinase in B16F10 cells (Mus musculus, UniProt P11344); test: Intracellular tyrosinase activity in B16F10 cells; type: cell-based; conditions: B16F10 cells exposed for 48 hours; non-linear curve fitting; read-out: IC50-Cellular tyrosinase inhibition
T1 construct: endogenous in cells; host or cells: B16F10
T1 sequence (P11344 19-533): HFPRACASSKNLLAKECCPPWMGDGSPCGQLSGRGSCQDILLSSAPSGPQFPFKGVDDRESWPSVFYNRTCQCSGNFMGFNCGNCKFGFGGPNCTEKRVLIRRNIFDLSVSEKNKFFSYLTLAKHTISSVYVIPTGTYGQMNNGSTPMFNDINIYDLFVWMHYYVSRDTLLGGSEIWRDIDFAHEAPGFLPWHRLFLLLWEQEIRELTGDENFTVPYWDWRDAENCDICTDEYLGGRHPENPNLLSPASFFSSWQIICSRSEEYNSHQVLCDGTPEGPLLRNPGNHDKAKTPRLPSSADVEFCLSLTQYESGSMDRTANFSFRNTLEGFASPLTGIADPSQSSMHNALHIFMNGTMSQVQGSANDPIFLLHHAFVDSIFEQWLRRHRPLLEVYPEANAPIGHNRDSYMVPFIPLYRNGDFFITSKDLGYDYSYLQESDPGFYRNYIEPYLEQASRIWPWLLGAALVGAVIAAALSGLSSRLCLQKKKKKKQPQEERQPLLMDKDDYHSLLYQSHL
Procedure: We quantitated the cellular tyrosinase activity to delineate mechanism of melanogenesis inhibition by the compounds. Briefly, B16F10 cells were cultured in 24-well tissue culture plates at a density of 4×10^4 cells/well. After 24 hrs, media was changed and test compounds were added, and further incubated for 48 hrs. At the end of treatments, cells were trypsinized and cell pellets were washed in PBS and lysed with lysis buffer (containing 1% NP-40 to solubilize the normally membrane-bound enzyme and protease inhibitors) under ice for 20 minutes and then centrifuged to remove cellular debris. 50 μl of lysates were then aliquoted in 96-well microplate and 150 μl of 3 mM solution of freshly prepared L-DOPA in phosphate buffer, pH 6.8 was added. […] The % inhibition of tyrosinase activity was calculated by determining melanin formation rates from measurements of the linear regions of the slopes of melanin content as a function of time and comparing computed rates of melanin formation in the presence of the test compounds to those of the controls.

DPPH antioxidant assay = conditions: cell-free
Description: Melanogenesis is often associated with higher oxidative stress and reactive oxygen species (ROS) generation. […] DPPH is a stable free radical which changes color from purple to yellow upon reduction by antioxidant compounds by electron donation; the color change can be measured spectrophotometrically. […] Briefly, 2,2-Diphenyl-1-picrylhydrazyl (DPPH) was freshly prepared in methanol and mixed with different concentrations of the compounds in triplicates in a 96 well plate. The Negative Control group consisted of DPPH only and Ascorbic Acid (AA) at 100 μg/ml was used as a positive control. The final DPPH concentration was 100 μM and final volume was 200 ul in the plate (20 μl samples with 180 μl of DPPH). The plate was covered and incubated for 30 minutes. Absorbance was read at 517 nm.

MITF = MITF protein levels by cell-based ELISA in B16F10 cells; parameters: species or system mouse; conditions: 48 hours
Procedure: MITF is the master regulator of melanogenesis and a known transcription factor for tyrosinase gene. The effects of PC and CMCs on micropthalmia transcription factor (MITF) proteins levels were assayed using a cell-based ELISA (LifeSpan Biosciences, Seattle). Briefly, B16F10 cells were cultured in a 96-well plate at 1×10^4 cells/well for 24 hours and then media was replaced with fresh media containing compounds in 0.1% DMSO for further 48 hours. The cells were then fixed and subsequent steps were conducted based on manufacturer instructions. The absorbance of MITF expression levels were normalized by absorbance of crystal violet stain (0.05%) and data was reported as % of control.

HaCaT cells = test: Phagocytosis assay using Fluosphere beads in keratinocytes; type: cell-based, human; conditions: beads 24 hours
Description: The final steps of melanognesis in the skin involve transfer of melanin contained within matgure melanosomes from melanocytes to keratinocytes. In order to model melanosome uptake by keratinocytes in the presence of CMCs, we used uptake of fluosphere latex beads (0.5 μm, carboxylate-modified, Molecular Probes, Eugene, Oreg.) by a human keratinocyte cell line (HaCaT) as a model for melanosome uptake study; this model has been previously established [Cardinali G, et al. 2005; Cardinali, G. et al. 2008] to study phagocytosis by keratinocytes. HaCaT cells were cultured in 24 well plates (3.5×10^4 cells/well) for 48 hours and then media was replaced with fresh media containing CMCs (CMC2.14 at 10 μM, CMC2.5 at 20 μM, CMC2.23 at 20 μM and CMC2.24 at 20 μM). Control wells were treated with 0.1% DMSO. After 48 hours exposure, media was removed and wells were washed with PBS and Fluosphere bead solution was suspended in complete medium by sonication for 15 minutes was then diluted in complete medium before addition to the wells ([…]) and further incubation for 24 hours. After the treatment, wells were washed in PBS and extracellular fluorescence was quenched using trypan blue (0.1% in PBS); Fluorescence intensity over the entire bottom surface of each well was measured at excitation/emission of 580/605 using the “well-scan” mode with average of 21 points/well for triplicate wells in a Gemini EM fluorescence plate reader. Controls without any beads were used as blank for background subtraction and results are reported as RFU values expressed as % relative to control.

[2] = B16F10, 5 μM (printed 5 M for CMC2.23)
[3] = B16F10, 20 μM (printed 20 M for CMC2.5)

| SMILES | inhibition of mushroom tyrosinase activity (mushroom tyrosinase) | IC50 [1] [µM] | DPPH antioxidant activity (DPPH antioxidant assay) | inhibition of MITF protein levels (MITF; [2]) | inhibition of MITF protein levels (MITF; B16F10, 10 μM) | inhibition of MITF protein levels (MITF; [3]) [%] | inhibition of phagocytosis of Fluosphere beads (HaCaT cells; 20 μM pretreatment 48 hours) [%] | inhibition of MITF protein levels (MITF; B16F10, tested concentrations 5-10 μM) | inhibition of phagocytosis of Fluosphere beads (HaCaT cells; 10 μM pretreatment 48 hours) [%] | inhibition of MITF protein levels (MITF; B16F10, 25 μM) [%] |
| --- | --- | --- | --- | --- | --- | --- | --- | --- | --- | --- |
| COC(=O)C(C(=O)C=Cc1ccc(O)c(OC)c1)C(=O)C=Cc1ccc(O)c(OC)c1 (stereo not shown) [CMC2.5, 4-methoxycarbonyl curcumin] | moderate inhibition | 50.7 | significant DPPH radical scavenging activity | did not show any suppression | did not show any suppression | 35 | 38.4 |  |  |  |
| COC(=O)C(C(=O)/C=C/c1ccc(O)cc1)C(=O)/C=C/c1ccc(O)cc1 [CMC2.14] | moderate inhibition | 4.69 | did not demonstrate potent antioxidant activity |  |  |  |  | did not show any significant reduction | 39.6 |  |
| COc1cc(/C=C/C(=O)C(C(=O)/C=C/c2ccc(O)c(OC)c2)C(=O)Nc2ccccc2)ccc1O [CMC2.23] | moderate inhibition | 13 | significant DPPH radical scavenging activity | 20% |  | 40 | 37.4 |  |  | 40 |
